According to US8618169B2, “Derivatives of N-phenylanthranilic acid and 2-benzimidazolone as potassium channel and/or neuron activity modulators” (Ramot at Tel-Aviv University Ltd., priority 2002, dated 2013):
Several values for one entry are separate records, joined by “and”; a condition that tells them apart may be missing. Equal entries are not always repeated.

How the values were obtained:
[1] = system: electroshock-induced seizures; assay: Maximal electroshock seizure (MES) test in ICR mice; format: in vivo
Description: All animals were treated in accordance with the Guide for the Care and Use of Laboratory Animals as adopted and promulgated by the U.S. National Institutes of Health. The procedures followed for experimentation and maintenance of the animals were approved by the animal research ethics committee of Tel Aviv University and in accordance with the Guide for the Care and Use of Laboratory Animals (1996. National Academy of Sciences, Washington D.C). […] electroshock were induced in adult mice by means of two transcorneal electrodes delivering an alternative current of 50 mA at 60 Hz for 0.2 sec using rodent shocker (Hugo Sachs Electronik, type 221). […] The tested compounds were dissolved in 0.9% saline were administered intraperitoneally either 30 minutes or 2 hours before the electroshock was performed. Animals failing to show tonic hind limb extension were scored as protected and were expressed in percentage.
Five groups of 10 ICR mice each received intraperitoneally saline (control) or meclofenamic acid (Compound 1) at 25 mg/kg, 50 mg/kg, 100 mg/kg and 150 mg/kg and were subjected 30 minutes later to an electric shock (50 mA, 0.2 second duration, 60 Hz).
In view of the strong depressing activity of Compound 6 on cortical neurons, the anticonvulsant activity in mice subjected to seizures produced by electroshock was examined, using the MES test described above. Compound 6 dissolved in saline was injected intraperitoneally (in a volume of 10 ml/kg) at doses ranging from 6 mg/kg to 20 mg/kg to ICR adult mice and its anticonvulsant activity was compared with saline. Twenty minutes after drug administration, seizures were produced by electroshock (50 mA, 0.2 second duration, 60 Hz).

rat cortical neurons = assay: Evoked and spontaneous action potential activity of cultured rat cortical neurons, current-clamp; format: cell-based
KCNQ2/3 channels = target: T1, KCNQ2/3 channels (Homo sapiens, UniProt O43525+O43526); assay: KCNQ2/3 current in transfected CHO cells, whole-cell patch-clamp; format: cell-based
T1 construct: expressed in transfected cells; host or cells: CHO cells

COX (Cyclooxygenase) = assay: COX activity assay in C-26 cells (PGE2 radioimmunoassay); format: cell-based; details: for IC50: C-26 cells
Description: C-26 cells were plated on 24-well plates using RPMI medium. Different concentrations of the tested compound were added thereto and the cells were incubated for 30 minutes at 37° C. 30 μM exogenic arachidonic acid was then added and incubation was continued for 20 minutes (37° C.), so as to allow the cells to synthesize PGE2. Indomethacin was added thereafter (10 μM), to stop and completely block the activity. Then, the upper solution was removed into clean 24-wells. To the remained cells 100 μl NaOH (1M) were added to induce cytolysis, and the cells were left for later protein measurement. The solution removed to the new 24-well was used for a radioimmunoassay. The COX activity was estimated by calculating the ng PGE2/mg protein parameter.

M-current = target: T2, M-current (Rattus norvegicus, UniProt O88943+O88944); assay: Native M-current of cultured rat cortical neurons, voltage-clamp; format: cell-based; details: cortical neurons, from −50 mV to −70 mV
T2 construct: the native M-current from pyramidal-like neurons was recorded; endogenous in cells; host or cells: primary cortical neurons from Sprague Dawley rat embryos (E18)

[2] = system: hippocampal pyramidal neurons; assay: Spontaneous EPSCs of hippocampal pyramidal neuron cultures, voltage-clamp; format: cell-based; details: 10 μM
Description: To further determine the synaptic site of M-channel activation by Compound 6, its effects on spontaneous excitatory postsynaptic currents (EPSCs) that could be recorded from dense networks of hippocampal pyramidal neuron cultures was tested.
In FIGS. 30B and 30C, burst activity before (control), in the presence (Compound 6) and after (Wash) application of 5 μM (FIG. 30B) and 10 μM (FIG. 30C) Compound 6, as recorded at the voltage clamp mode is shown. In FIG. 30D, burst activity before (control) and in the presence of 25 μM Linopirdine is shown. In FIG. 30E, the normalized number of bursts appeared in 180 seconds time period for 5 μM (left panel), 10 μM (mid panel) of Compound 6 and 25 μM linopirdine (right panel) are shown. The holding potential was −70 mV. n=5-6.
Thus, using the voltage-clamp configuration of the patch-clamp technique, spontaneous EPSCs were isolated at −70 mV (holding potential) in the presence of 10 μM bicuculline and 10 μM picrotoxin to block GABAA receptor-mediated inhibitory postsynaptic currents. As is shown in FIG. 30A, under control conditions, the frequency of EPSCs is variable depending of the density of the hippocampal culture, ranging from 0.4 Hz to 2 Hz. […] However, the majority of the EPSCs measured at −70 mV under the experimental recording conditions are mediated by AMPA receptors as most of the currents are blocked by 10 μM NBQX, leaving only a small fraction EPSC sensitive to the NMDA receptor blocker DL-AP5 (FIG. 30A).

KCNQ2/Q3 = KCNQ2/Q3 (Homo sapiens, UniProt O43525+O43526); assay: Opener potency on KCNQ2/Q3 by leftward shift of half-activation potential (ΔV50) versus concentration, Hill fit; format: cell-based; design: expressed in transfected cells
small DRG neurons = assay: Spiking activity of DRG neurons, current-clamp; format: cell-based, mouse; details: 15 μM; 75 pA, 400 ms
Description: Dorsal root ganglion (DRG) neurons were dissected from 2-4 days-old ICR mice that were decapitated. DRGs were placed in Hank's balanced saline solution (HBSS) and were prepared by enzymatic dissociation. Briefly, cells were incubated for 30 minutes in 5 mg/ml dispase (Sigma), 2 mg/ml collagenase type 1A (Sigma) and 0.1 mg/ml DNase (Invitrogen/Gibco) in calcium and magnesium-free HBSS, and the ganglia were thereafter mechanically triturated with a firepolished glass Pasteur pipette. The ganglia were then centrifuged for 5 minutes at 80×g and resuspended in DMEM supplemented with 2 mM L-glutamine, 16.5 mM NaCO3, 6 g/l glucose, 5 ml penicillin/streptomycin and 10% fetal calf serum. For electrophysiological recording, dissociated neurons were plated on 13 mm glass coverslips previously coated with poly-D-lysine (1 mg/ml) and laminin (10 μg/ml) and were used after 2-6 days in culture.
For current measurements in CHO cells, recordings were performed 40 hours following transfection, using the whole-cell configuration of the patch-clamp technique [Hamill et al., Nature 294: 462-464 (1981)]. Signals were amplified using an Axopatch 200B patch-clamp amplifier (Axon Instruments, Foster City, Calif., USA), sampled at 2 kHz and filtered at 800 Hz via a 4-pole Bessel low pass filter. Data were acquired using pClamp 8.1 software (Axon Instruments, Foster City, Calif., USA) and an Elonex Pentium III computer in conjunction with a DigiData 1322A interface (Axon Instruments, Foster City, Calif., USA). The patch pipettes were pulled from borosilicate glass (Warner Instrument. Corp., Hamden, Conn., USA) with a resistance of 2-5 MΩ and were filled with (in mM): 130 KCl, 1 MgCl2, 5 K2ATP, 5 EGTA, 10 HEPES, adjusted with KOH at pH 7.4 (290 mOsm). The external solution contained (in [mM]): 140 NaCl, 4 KCl, 1.8 CaCl2, 1.2 MgCl2, 11 glucose, 5.5 HEPES, adjusted with NaOH at pH 7.4 (310 mOsm). Series resistances (3-13 MΩ) were compensated (75-90%) and periodically monitored. […]

O=C(O)Cc1ccccc1Nc1c(Cl)cccc1Cl [Compound 2, diclofenac]
% Protection ([1]; 25 mg/kg i.p., 30 minutes before electroshock): 10 (10) %
% Protection ([1]; 50 mg/kg i.p., 30 minutes before electroshock, listed as Diclofenac): 64 (11) %
% Protection ([1]; 50 mg/kg i.p., 30 minutes before electroshock, listed as diclofenac): 64%
% Protection ([1]; 50 mg/kg i.p., 2 hours before electroshock): 50 (4) %
% Protection ([1]; 100 mg/kg i.p., 30 minutes before electroshock): 92 (12) %
% Protection ([1]; 100 mg/kg i.p., 2 hours before electroshock): 83 (6) %
% Protection ([1]; 200 mg/kg i.p., 30 minutes before electroshock): 100 (15) %
% Protection ([1]; 200 mg/kg i.p., 2 hours before electroshock): 100 (6) %
ED50 ([1]; Mus musculus, intraperitoneal, 30 minutes or 2 hours before electroshock, 25-200 mg/kg, read-out: ED50 for suppression of tonic extension induced by MES): 43 mg/kg
effect on evoked action potentials (rat cortical neurons; 25 μM): no spike could be evoked
effect on spontaneous spiking activity (rat cortical neurons; 25 μM): quickly and reversibly depressed

Cc1c(Cl)cccc1Nc1ccccc1C(=O)NCCOCCO [Compound 3]
increase of the current amplitude (KCNQ2/3 channels; 25 μM, train protocol, stepped to −50 mV): up to 299±47%
opener action on recombinant KCNQ2/3 channels (in words) (KCNQ2/3 channels; CHO cells): potent KCNQ2/3 potassium channel opening properties
IC50 (COX (Cyclooxygenase)): 113 nM and 114 nM

O=C(NCCOCCO)c1ccccc1Nc1cccc(C(F)(F)F)c1 [Compound 4]
increase of the current amplitude (KCNQ2/3 channels; 50 μM, stepped from −85 mV to −40 mV): > 1.5 fold
increase of the current amplitude (KCNQ2/3 channels; 50 μM, stepped from −85 mV to −50 mV): more than 4 fold
opener action on recombinant KCNQ2/3 channels (in words) (KCNQ2/3 channels; CHO cells): potent KCNQ2/3 channel opener
effect on evoked and spontaneous cortical neuron activity (rat cortical neurons): depress
effect on spontaneous spiking activity (rat cortical neurons; 20 μM): markedly depressed
negative shift in the threshold of M-current activation (M-current): approximately 20 mV
IC50 (COX (Cyclooxygenase)): > 30000 nM

Cc1cccc(Nc2ccccc2C(=O)NCCOCCO)c1C [Compound 5]
effect on current amplitude (KCNQ2/3 channels; 15 μM, at −40 and −50 mV): enhances the current amplitude
leftward shift in the voltage-dependence of KCNQ2/3 activation (KCNQ2/3 channels; 25 μM, CHO cells): ~8 mV
V50 of KCNQ2/3 activation with compound (KCNQ2/3 channels; 25 μM, CHO cells, control −30.9±4.1 mV): −38.3±1.9 mV
effect on deactivation kinetics of KCNQ2/3 channels (KCNQ2/3 channels; CHO cells): slowed down
effect on evoked and spontaneous cortical neuron activity (rat cortical neurons): depress
effect on evoked action potentials (rat cortical neurons; 25 μM): reversibly inhibited
negative shift in the threshold of M-current activation (M-current): approximately 20 mV
COX inhibition activity (in words) (COX (Cyclooxygenase)): do not exhibit COX inhibition activity
IC50 (COX (Cyclooxygenase)): 10300 nM

O=C(Cc1ccccc1Nc1c(Cl)cccc1Cl)OCCOCCO [Compound 7]
opener action on recombinant KCNQ2/3 channels (in words) (KCNQ2/3 channels; CHO cells): potent KCNQ2/3 channel opener
effect on evoked and spontaneous cortical neuron activity (rat cortical neurons): depress
effect on evoked and spontaneous spiking activity of cortical neurons (rat cortical neurons; 20 μM): very potent inhibitory activity
negative shift in the threshold of M-current activation (M-current): approximately 20 mV
IC50 (COX (Cyclooxygenase)): 11 nM and 11.7 nM

COCCOCCOC(=O)Cc1ccccc1Nc1c(Cl)cccc1Cl [Compound 8]
opener action on recombinant KCNQ2/3 channels (in words) (KCNQ2/3 channels; CHO cells): only a weak opener action
effect on evoked and spontaneous cortical neuron activity (rat cortical neurons): depress
effect on evoked and spontaneous spiking activity of cortical neurons (rat cortical neurons; low concentrations (10 μM evoked, 5 μM spontaneous)): potent inhibitory activity

CN(CCO)C(=O)Cc1ccccc1Nc1c(Cl)cccc1Cl [Compound 9]
opener action on recombinant KCNQ2/3 channels (in words) (KCNQ2/3 channels; CHO cells): only a weak opener action
effect on evoked and spontaneous spiking activity of cortical neurons (rat cortical neurons; 20 μM): inhibitory activity

CCn1c(=O)[nH]c2ccccc21 [Compound 10, 1-ethyl benzimidazolone]
increase of the current amplitude (KCNQ2/3 channels; 100 μM, train protocol, cells stepped to −30 mV): up to 57%

O=C1N(c2ccccc2)c2ccccc2C1(Cc1ccncc1)Cc1ccncc1 [linopirdine]
frequency of EPSCs [2]: up to 278±41 % of control
effect on spontaneous spiking activity (rat cortical neurons; 10 μM): significantly enhanced the frequency of spontaneous spiking

O=C1NC(=O)C(c2ccccc2)(c2ccccc2)N1 [phenyloin]
protection from hind limb extension ([1]; 20 mg/kg intraperitoneal, 30 minutes before electroshock): fully prevented hind limb extension

CCOC(=O)Nc1ccc(NCc2ccc(F)cc2)cc1N [retigabine, N-(2-amino-4-(4-fluorobenzylamino)-phenyl)carbamic acid ethyl ester]
EC50 (KCNQ2/Q3): 2000 ± 1300 nM
Hill coefficient ηH (KCNQ2/Q3; Hill fit, compound alone): 1.20±0.30
maximum ΔV50 (KCNQ2/Q3; increasing concentrations co-exposed with 25 μM meclofenamic acid): −32±4 mV
effect on trains of evoked spikes (small DRG neurons): Very similar results

CCCC(CCC)C(=O)[O-].[Na+] [sodium valproate]
protection from hind limb extension ([1]; 500 mg/kg intraperitoneal, 30 minutes before electroshock): fully prevented hind limb extension
